This passage reports IC50 results from US9290507B2, “B-RAF kinase inhibitors” (Boehringer Ingelheim International GmbH, priority 2010, dated 2016).

A word on the IC50: it is the concentration that inhibits the measured activity by half. A high value points to weaker potency.

B-Raf (V600E)-kinase, sequence (P15056 whole entry V600E): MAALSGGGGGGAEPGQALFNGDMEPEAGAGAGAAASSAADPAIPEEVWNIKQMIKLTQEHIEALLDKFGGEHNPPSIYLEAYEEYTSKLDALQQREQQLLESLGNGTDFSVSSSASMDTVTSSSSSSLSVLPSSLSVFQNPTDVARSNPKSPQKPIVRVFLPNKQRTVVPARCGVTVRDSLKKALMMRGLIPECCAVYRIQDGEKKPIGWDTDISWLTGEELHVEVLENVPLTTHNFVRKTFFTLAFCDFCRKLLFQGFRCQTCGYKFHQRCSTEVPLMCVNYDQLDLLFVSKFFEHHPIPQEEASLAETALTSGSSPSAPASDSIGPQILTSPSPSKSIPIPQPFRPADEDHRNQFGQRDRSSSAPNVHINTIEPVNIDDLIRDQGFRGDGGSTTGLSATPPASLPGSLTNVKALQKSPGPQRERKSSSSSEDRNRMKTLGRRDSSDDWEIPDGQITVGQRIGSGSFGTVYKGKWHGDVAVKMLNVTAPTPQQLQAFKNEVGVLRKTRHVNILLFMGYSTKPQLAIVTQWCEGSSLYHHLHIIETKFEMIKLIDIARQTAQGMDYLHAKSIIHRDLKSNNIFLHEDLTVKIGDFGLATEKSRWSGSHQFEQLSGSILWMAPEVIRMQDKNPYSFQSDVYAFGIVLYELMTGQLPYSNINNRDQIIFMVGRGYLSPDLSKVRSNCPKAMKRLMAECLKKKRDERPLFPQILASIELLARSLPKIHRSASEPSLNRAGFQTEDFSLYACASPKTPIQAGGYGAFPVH

The experiment concerns the target B-Raf (V600E)-kinase (Homo sapiens (Human), UniProt P15056, V600E). The experiment is described as follows: Kinase test B-Raf (V600E). The experiment is classed as biochemical. Conditions: 1 h preincubation, 250 μM ATP. As for the experimental part: In a dilution series 10 μL/well of test substance solution are placed in a multiwell plate. The dilution series is selected so that generally a range of concentrations of 2 μM to 0.119 nM or 0.017 nM is covered. If necessary the initial concentration of 2 μM is changed to 50 μM, 10 μM or 0.4 μM or 0.2857 μM and further dilution is carried out accordingly. The final concentration of DMSO is 5%. 10 μL/well of the B-Raf (V600E)-kinase solution are pipetted in (containing 0.5 ng B-Raf (V600E)-kinase (e.g. from Upstate) in 20 mM Tris-HCl pH 7.5, 0.1 mM EDTA, 0.1 mM EGTA, 0.286 mM sodium orthovanadate, 10% glycerol, 1 mg/mL bovine serum albumin, 1 mM dithiothreitol) and the mixture is incubated for 1 h at RT under with shaking. The kinase reaction is started by the addition of 20 μL/well ATP solution [final concentration: 250 μM ATP, 30 mM Tris-HCl pH 7.5, 0.02% Brij, 0.2 mM sodium orthovanadate, 10 mM magnesium acetate, 0.1 mM EGTA, phosphatase cocktail (Sigma, #P2850, dilution recommended by the manufacturer)] and 10 μL/well MEK1 solution [containing 50 ng biotinylated MEK1 (prepared from purified MEK1 according to standard procedure, e.g. with EZ-Link Sulpho-NHS-LC-Biotin reagent, Pierce, #21335)] and carried out for 60 min at RT with constant shaking. The reaction is stopped by the addition of 12 μL/well of a 100 mM EDTA solution and incubation is continued for a further 5 min. 55 μL/well of the reaction solution are transferred into a streptavidin-coated plate (e.g. Streptawell HighBond, Roche, #11989685001) and shaken gently for 1 h at RT, in order to bind biotinylated MEK1 to the plate. After elimination of the liquid the plate is washed five times with 200 μL/well of 1×PBS and 100 μL/well solution of primary antibody plus europium-labelled secondary antibody [Anti Phospho-MEK (Ser217/221), Cell Signaling, #9121 and Eu-N1 labelled goat-anti-rabbit antibody, Perkin Elmer, #AD0105] is added, the primary antibody is diluted 1:2000 and the secondary antibody is diluted to 0.4-0.5 μg/mL in Delfia Assay Buffer (Perkin Elmer, #1244-111). After 1 h shaking at RT the solution is poured away and washed five times with 200 μL/well Delfia Wash Buffer (Perkin Elmer, #4010-0010/#1244-114). After the addition of 200 μL/well Enhancement Solution (Perkin Elmer, #4001-0010/#1244-105) the mixture is shaken for 10 min at RT and then measured in a Wallac Victor using the program “Delfia Time Resolved Fluorescence (Europium)”. IC50 values are obtained from these dosage-activity curves using a software program (GraphPadPrizm).
Compound `Cc1ccc(C(=O)Nc2cc(C(F)(F)F)ccn2)cc1-n1cc(-c2cncc(NCC3CCCO3)c2)nn1` (stereo not shown) [I-58] gave a half-inhibitory concentration (IC50) of 11 nM. For `Cc1ccc(C(=O)Nc2cc(C(F)(F)F)ccn2)cc1-n1cc(-c2cncc(N(C)CC3CCCO3)c2)nn1` (stereo not shown) [I-59] the value was 44 nM.

For the compound `Cc1ccc(C(=O)Nc2cc(C(F)(F)F)ccn2)cc1-n1cc(-c2cncc(N3CCC(N(C)C)CC3)c2)nn1` [I-60], the IC50 turned out to be 8 nM. Consider `COCCN1CCN(c2cncc(-c3cn(-c4cc(C(=O)Nc5cc(C(F)(F)F)ccn5)ccc4C)nn3)c2)CC1` [I-61], for which the IC50 turned out to be 11 nM. Compound `Cc1ccc(C(=O)Nc2cc(C(F)(F)F)ccn2)cc1-n1cc(-c2cncc(N(C)C)c2)nn1` [I-62] gave an IC50 of 24 nM. In turn, `Cc1ccc(C(=O)Nc2cc(C(F)(F)F)ccn2)cc1-n1cc(-c2cncc(NC3CCN(C)C3)c2)nn1` (stereo not shown) [I-63] showed a half-inhibitory concentration (IC50) of 6 nM. This IC50 is about 4-fold lower than that of the compound before. Next, `Cc1ccc(C(=O)Nc2cc(C(F)(F)F)ccn2)cc1-n1cc(-c2cncc(N3CCCCC3)c2)nn1` [I-64]: 69 nM; `Cc1ccc(C(=O)Nc2cc(C(F)(F)F)ccn2)cc1-n1cc(-c2cncc(N(C)CCN3CCCC3)c2)nn1` [I-65]: 9 nM. Consider `Cc1ccc(C(=O)Nc2cc(C(F)(F)F)ccn2)cc1-n1cc(-c2cncc(NC3CC3)c2)nn1` [I-66], for which the IC50 came out at 44 nM. Take `Cc1ccc(C(=O)Nc2cc(C(F)(F)F)ccn2)cc1-n1cc(-c2cncc(N3CCCOCC3)c2)nn1` [I-67]: the 50% inhibitory concentration (IC50) turned out to be 24 nM. For `Cc1ccc(C(=O)Nc2cc(C(F)(F)F)ccn2)cc1-n1cc(-c2cncc(N(C)C3CCOC3)c2)nn1` (stereo not shown) [I-68] the value was 7 nM. Next, `Cc1ccc(C(=O)Nc2cc(C(F)(F)F)ccn2)cc1-n1cc(-c2cncc(N(C)C3CCOCC3)c2)nn1` [I-69]: 30 nM; `Cc1ccc(C(=O)Nc2cc(C(F)(F)F)ccn2)cc1-n1cc(-c2cncc(NC3CCOC3)c2)nn1` (stereo not shown) [I-70]: 11 nM. On to `Cc1ccc(C(=O)Nc2cc(C(F)(F)F)ccn2)cc1-n1cc(-c2cncc(N3C[C@@H]4C[C@H]3CN4)c2)nn1` [I-71], for which half-maximal inhibition (IC50) was put at 4 nM.

In turn, `Cc1ccc(C(=O)Nc2cc(C(F)(F)F)ccn2)cc1-n1cc(-c2cncc(N3CCOCC3)c2)nn1` [I-72] came in with an IC50 of 12 nM. For `COCCN(C)c1cncc(-c2cn(-c3cc(C(=O)Nc4cc(C(F)(F)F)ccn4)ccc3C)nn2)c1` [I-73] the value was 34 nM. Next, `Cc1ccc(C(=O)Nc2cc(C(F)(F)F)ccn2)cc1-n1cc(-c2cncc(N(C)C3CCN(C)CC3)c2)nn1` [I-74]: 12 nM; `Cc1ccc(C(=O)Nc2cc(C(F)(F)F)ccn2)cc1-n1cc(-c2cncc(N3CCC(N(C)C)C3)c2)nn1` (stereo not shown) [I-75]: 7 nM; `Cc1ccc(C(=O)Nc2cc(C(F)(F)F)ccn2)cc1-n1cc(-c2cncc(NC3CCN(C)CC3)c2)nn1` [I-76]: 21 nM. With `Cc1ccc(C(=O)Nc2cc(C(F)(F)F)ccn2)cc1-n1cc(-c2cncc(N3CCNCC3)c2)nn1` [I-77], the IC50 worked out at 5 nM.

As for `Cc1ccc(C(=O)Nc2cc(C(F)(F)F)ccn2)cc1-n1cc(-c2cncc(N(C)C3CCN(C)C3)c2)nn1` (stereo not shown) [I-78], the IC50 came out at 4 nM. For `Cc1ccc(C(=O)Nc2cc(C(F)(F)F)ccn2)cc1-n1cc(-c2cncc(N3CC[C@H](N(C)C)C3)c2)nn1` [I-79] the value was 9 nM; for `Cc1ccc(C(=O)Nc2cc(C(F)(F)F)ccn2)cc1-n1cc(-c2cncc(N3CC[C@@H](N(C)C)C3)c2)nn1` [I-80], 15 nM. `Cc1ccc(C(=O)Nc2cc(C(F)(F)F)ccn2)cc1-n1cc(-c2cncc(NC3CCOCC3)c2)nn1` [I-81] registered an IC50 of 10 nM. Next, `Cc1ccc(C(=O)Nc2cc(C(F)(F)F)ccn2)cc1-n1cc(-c2cncc(N3C[C@@H]4C[C@H]3CN4C)c2)nn1` [I-82]: 6 nM; `Cc1ccc(C(=O)Nc2cc(C(F)(F)F)ccn2)cc1-n1cc(-c2cncc(N3CCN(C)CC3)c2)nn1` [I-83]: 7 nM; `Cc1ccc(C(=O)Nc2cc(C(F)(F)F)ccn2)cc1-n1cc(-c2cncc(N3CCCC3)c2)nn1` [I-84]: 7 nM. Next, `Cc1ccc(C(=O)Nc2cc(C(F)(F)F)ccn2)cc1-n1cc(-c2cncc(NCCN(C)C)c2)nn1` [I-85]: 10 nM; `Cc1ccc(C(=O)Nc2cc(C(F)(F)F)ccn2)cc1-n1cc(-c2cncc(N(C)CCN(C)C)c2)nn1` [I-86]: 10 nM. Next, `CCN1CCN(c2cncc(-c3cn(-c4cc(C(=O)Nc5cc(C(F)(F)F)ccn5)ccc4C)nn3)c2)CC1` [I-87]: 7 nM; `Cc1ccc(C(=O)Nc2cc(C(F)(F)F)ccn2)cc1-n1cc(-c2cncc(N3CCN(C(C)C)CC3)c2)nn1` [I-88]: 8 nM; `Cc1ccc(C(=O)Nc2cc(C(C)(C)C)on2)cc1-n1cc(-c2cncc(N3CCC(N4CCN(C)CC4)C3)c2)nn1` (stereo not shown) [I-89]: 6 nM.

Compound `Cc1ccc(C(=O)Nc2cc(C(C)(C)C)on2)cc1-n1cc(-c2cncc(N3CCC(N4CCN(C)CC4)CC3)c2)nn1` [I-90] showed a concentration for half-maximal inhibition (IC50) of 10 nM. Against the preceding compound, the IC50 is about 1.7-fold higher.

`Cc1ccc(C(=O)Nc2cc(C(C)(C)C)on2)cc1-n1cc(-c2cncc(N3CCCN(C)CC3)c2)nn1` [I-91] came in with a half-maximal inhibitory concentration (IC50) of 8 nM. Compound `Cc1ccc(C(=O)Nc2cc(C(C)(C)C)on2)cc1-n1cc(-c2cncc(N3CCC(N4CCN(C(C)C)CC4)C3)c2)nn1` (stereo not shown) [I-92] showed an IC50 of 8 nM. In turn, `Cc1ccc(C(=O)Nc2cc(C(C)(C)C)on2)cc1-n1cc(-c2cncc(N3CC(N4CCN(C)CC4)C3)c2)nn1` [I-93] gave an IC50 of 8 nM. This lies in the single-digit nanomolar range. `Cc1ccc(NC(=O)c2cc(C(F)(F)F)ccn2)cc1-n1cc(-c2cncc(N3CCOCC3)c2)nn1` [II-1] showed an IC50 of 9 nM. Next, `Cc1ccc(NC(=O)c2cc(CNC(C)C)c(C(C)(C)C)o2)cc1-n1cc(-c2cncc(N3CCOCC3)c2)nn1` [II-2]: 14 nM. For `Cc1ccc(NC(=O)c2ccc(C(C)(C)C)o2)cc1-n1cc(-c2cncc(N3CCN(C(C)(C)C)CC3)c2)nn1` [II-3] the value was 3 nM; for `Cc1ccc(NC(=O)c2cc(C(C)(C)C)nn2C)cc1-n1cc(-c2cncc(N3CCOCC3)c2)nn1` [II-4], 11 nM.

In turn, `Cc1ccc(NC(=O)c2cc(C(C)(C)C)on2)cc1-n1cc(-c2cncc(N3CCOCC3)c2)nn1` [II-5] returned an IC50 of 8 nM. Next, `Cc1ccc(NC(=O)c2cc(C(C)(C)C)nn2C)cc1-n1cc(-c2cncc(N3CCN(C)CC3)c2)nn1` [II-6]: 8 nM.

`Cc1ccc(NC(=O)c2cc(C(F)(F)F)ccn2)cc1-n1cc(-c2cncc(N3CCN(C)CC3)c2)nn1` [II-7]: the IC50 was found to be 4 nM. Compared with the last compound, the IC50 is about 2-fold lower. Regarding `Cc1ccc(NC(=O)c2cc(C(C)(C)C)on2)cc1-n1cc(-c2cncc(N3CCN(C)CC3)c2)nn1` [II-8], the IC50 was determined as 5 nM.

Consider `Cc1ccc(NC(=O)c2cc(C)n(C(C)(C)C)n2)cc1-n1cc(-c2cncc(N3CCOCC3)c2)nn1` [II-9], for which half-maximal inhibition (IC50) was put at 18 nM. Take `Cc1ccc(NC(=O)c2cc(CN3CCCC3)c(C(C)(C)C)o2)cc1-n1cc(-c2cncc(N3CCOCC3)c2)nn1` [II-10]: the IC50 amounted to 11 nM. Next, `Cc1ccc(NC(=O)c2ccc(C(C)(C)C)s2)cc1-n1cc(-c2cncc(N3CCOCC3)c2)nn1` [II-11]: 10 nM; `Cc1ccc(NC(=O)c2cc(C(C)(C)C)oc2C)cc1-n1cc(-c2cncc(N3CCOCC3)c2)nn1` [II-12]: 15 nM.

In turn, `Cc1ccc(NC(=O)c2ccc(C(C)(C)C)o2)cc1-n1cc(-c2cncc(N3CCOCC3)c2)nn1` [II-13] gave an IC50 of 9 nM. Consider `CCN1CCN(c2cncc(-c3cn(-c4cc(NC(=O)c5ccc(C(C)(C)C)o5)ccc4C)nn3)c2)CC1` [II-14], for which the IC50 is 3 nM. As to `Cc1ccc(NC(=O)c2ccc(C(C)(C)C)o2)cc1-n1cc(-c2cncc(N3CCN(C)CC3)c2)nn1` [II-15], half-maximal inhibition (IC50) required 2 nM. For `Cc1ccc(NC(=O)c2ccc(C(C)(C)C)o2)cc1-n1cc(-c2cncc(N3CCN(CC4CC4)CC3)c2)nn1` [II-16] the value was 2 nM.

`COCCCN1CCN(c2cncc(-c3cn(-c4cc(NC(=O)c5ccc(C(C)(C)C)o5)ccc4C)nn3)c2)CC1` [II-17] returned an IC50 of 1 nM. In turn, `C=CCN1CCN(c2cncc(-c3cn(-c4cc(NC(=O)c5ccc(C(C)(C)C)o5)ccc4C)nn3)c2)CC1` [II-18] yielded an IC50 of 5 nM. Against the preceding compound, the IC50 is about 5-fold higher. Next, `Cc1ccc(NC(=O)c2ccc(C(C)(C)C)o2)cc1-n1cc(-c2cncc(N3CCN(CC(C)C)CC3)c2)nn1` [II-19]: 5 nM.
